Reference: ChEMBL document CHEMBL1914428, “Investigating the role of the hydroxyl groups of substrate erythrose 4-phosphate in the reaction catalysed by the first enzyme of the shikimate pathway” (Bioorg Med Chem Lett, 2011)
The source made the active and inactive calls. The rule behind the calls is not given here.

Key:
Pyrococcus furiosus [1] = experiment: Inhibition of Pyrococccus furiosus DAH7P synthase type 1beta
Escherichia coli [2] = experiment: Activity of Escherichia coli phenylalanine-sensitive DAH7P synthase type 1alpha by spectrophotometry in the presence of Mn2+
Pyrococcus furiosus [3] = experiment: Ratio of Kcat to Km of Pyrococccus furiosus DAH7P synthase type 1beta
[4] = system: Mycobacterium tuberculosis; experiment: Ratio of Kcat to Km of Mycobacterium tuberculosis DAH7P synthase type 2
Escherichia coli [5] = experiment: Ratio of Kcat to Km of Escherichia coli phenylalanine-sensitive DAH7P synthase type 1alpha
Pyrococcus furiosus [6] = experiment: Activity of Pyrococccus furiosus DAH7P synthase type 1beta by spectrophotometry in the presence of Mn2+
[7] = system: Mycobacterium tuberculosis; experiment: Activity of Mycobacterium tuberculosis DAH7P synthase type 2 by spectrophotometry in the presence of Mn2+

With `O=CC(O)CCOP(=O)(O)O` (racemic) the inhibition (Pyrococcus furiosus [1]) was “Active” and the Km (Escherichia coli [2]) was 2600 µM.

`O=C[C@H](O)[C@H](O)COP(=O)(O)O` showed a kcat/Km (Pyrococcus furiosus [3]) of 160000 M⁻¹ s⁻¹, a kcat/Km [4] of 150000 M⁻¹ s⁻¹ and a kcat/Km (Escherichia coli [5]) of 670000 M⁻¹ s⁻¹. The Km (Pyrococcus furiosus [6]) was 9 µM, the kcat (Pyrococcus furiosus [6]) was 1.4 s⁻¹ and the Km [7] was 37 µM. It also gave a kcat [7] of 5.4 s⁻¹, a Km (Escherichia coli [2]) of 39 µM and a kcat (Escherichia coli [2]) of 26 s⁻¹.

`O=C[C@H](O)CCOP(=O)(O)O` showed a kcat/Km (Pyrococcus furiosus [3]) of 11000 M⁻¹ s⁻¹, a kcat/Km [4] of 31000 M⁻¹ s⁻¹ and a kcat/Km (Escherichia coli [5]) of 2000 M⁻¹ s⁻¹. The Km (Pyrococcus furiosus [6]) was 200 µM, the kcat (Pyrococcus furiosus [6]) was 2.1 s⁻¹ and the Km [7] was 77 µM. It also gave a kcat [7] of 2.4 s⁻¹, a Km (Escherichia coli [2]) of 2700 µM and a kcat (Escherichia coli [2]) of 4.5 s⁻¹.

In the case of `O=CC[C@H](O)COP(=O)(O)O`, the kcat/Km (Pyrococcus furiosus [3]) was 500000 M⁻¹ s⁻¹, the kcat/Km [4] was 110000 M⁻¹ s⁻¹ and the kcat/Km (Escherichia coli [5]) was 60000 M⁻¹ s⁻¹. The Km (Pyrococcus furiosus [6]) was 6 µM, the kcat (Pyrococcus furiosus [6]) was 3 s⁻¹ and the Km [7] was 46 µM. The kcat [7] was 4.9 s⁻¹, the Km (Escherichia coli [2]) was 410 µM and the kcat (Escherichia coli [2]) was 25 s⁻¹.
